Blank lines part the entries; values can stand above or below the molecule they belong to.
Assays:
Details in all cases: binder
MAP2K4 = biological target: T1, MAP2K4 (Homo sapiens, UniProt P45985)
T1 sequence (P45985 1-399): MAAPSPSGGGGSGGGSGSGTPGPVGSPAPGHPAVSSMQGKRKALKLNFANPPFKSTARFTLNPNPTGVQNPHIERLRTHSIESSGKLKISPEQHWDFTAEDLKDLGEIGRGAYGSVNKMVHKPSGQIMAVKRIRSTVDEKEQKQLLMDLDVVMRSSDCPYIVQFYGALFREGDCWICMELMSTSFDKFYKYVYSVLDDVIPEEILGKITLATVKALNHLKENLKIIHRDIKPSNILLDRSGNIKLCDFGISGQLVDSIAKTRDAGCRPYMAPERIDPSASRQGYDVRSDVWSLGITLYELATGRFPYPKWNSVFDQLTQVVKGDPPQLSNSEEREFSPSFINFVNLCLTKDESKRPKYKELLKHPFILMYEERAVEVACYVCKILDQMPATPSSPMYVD

EphB1 = biological target: T2, EphB1 (Homo sapiens, UniProt P54762)
T2 sequence (P54762 1-984): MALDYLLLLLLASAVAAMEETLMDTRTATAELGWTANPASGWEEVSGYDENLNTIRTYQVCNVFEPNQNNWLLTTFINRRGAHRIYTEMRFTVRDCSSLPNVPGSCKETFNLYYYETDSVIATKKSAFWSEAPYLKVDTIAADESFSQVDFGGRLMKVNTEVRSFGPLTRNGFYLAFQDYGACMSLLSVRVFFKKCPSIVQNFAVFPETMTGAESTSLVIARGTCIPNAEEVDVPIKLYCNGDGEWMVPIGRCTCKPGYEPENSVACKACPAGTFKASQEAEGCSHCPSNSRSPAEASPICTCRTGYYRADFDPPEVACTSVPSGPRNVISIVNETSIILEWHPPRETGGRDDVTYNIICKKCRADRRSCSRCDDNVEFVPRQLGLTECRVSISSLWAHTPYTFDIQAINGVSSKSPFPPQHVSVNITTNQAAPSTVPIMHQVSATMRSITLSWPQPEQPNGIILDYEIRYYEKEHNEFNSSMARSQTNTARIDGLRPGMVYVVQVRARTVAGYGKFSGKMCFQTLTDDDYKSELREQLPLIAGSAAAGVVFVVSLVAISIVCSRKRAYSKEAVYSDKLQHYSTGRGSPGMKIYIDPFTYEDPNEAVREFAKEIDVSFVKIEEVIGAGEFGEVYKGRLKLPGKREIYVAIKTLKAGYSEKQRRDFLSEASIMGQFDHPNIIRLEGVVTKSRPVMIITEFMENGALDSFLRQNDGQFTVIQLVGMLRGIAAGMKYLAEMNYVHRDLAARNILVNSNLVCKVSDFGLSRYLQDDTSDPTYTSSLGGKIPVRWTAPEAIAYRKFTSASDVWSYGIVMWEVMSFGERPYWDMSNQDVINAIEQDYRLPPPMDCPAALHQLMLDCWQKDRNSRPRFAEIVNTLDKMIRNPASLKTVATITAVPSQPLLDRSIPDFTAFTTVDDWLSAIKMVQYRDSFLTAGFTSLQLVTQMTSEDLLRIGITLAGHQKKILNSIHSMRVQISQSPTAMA

NEK2 = biological target: T3, NEK2 (Homo sapiens, UniProt P51955)
T3 sequence (P51955 1-445): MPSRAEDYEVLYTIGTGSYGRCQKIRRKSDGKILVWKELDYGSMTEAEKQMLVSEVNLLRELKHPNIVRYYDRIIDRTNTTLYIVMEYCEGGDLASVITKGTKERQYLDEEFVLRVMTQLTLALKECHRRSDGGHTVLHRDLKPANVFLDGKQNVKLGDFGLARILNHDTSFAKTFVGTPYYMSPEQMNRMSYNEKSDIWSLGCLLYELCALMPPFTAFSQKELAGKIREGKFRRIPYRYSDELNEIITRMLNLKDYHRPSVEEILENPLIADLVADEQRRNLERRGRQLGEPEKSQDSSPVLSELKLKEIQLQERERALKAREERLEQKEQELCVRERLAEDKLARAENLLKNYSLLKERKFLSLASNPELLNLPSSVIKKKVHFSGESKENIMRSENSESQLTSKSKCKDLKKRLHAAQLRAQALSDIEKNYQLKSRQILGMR

DAPK1 = DAPK1 (Homo sapiens, UniProt P53355)
DAPK1, sequence (P53355 whole entry): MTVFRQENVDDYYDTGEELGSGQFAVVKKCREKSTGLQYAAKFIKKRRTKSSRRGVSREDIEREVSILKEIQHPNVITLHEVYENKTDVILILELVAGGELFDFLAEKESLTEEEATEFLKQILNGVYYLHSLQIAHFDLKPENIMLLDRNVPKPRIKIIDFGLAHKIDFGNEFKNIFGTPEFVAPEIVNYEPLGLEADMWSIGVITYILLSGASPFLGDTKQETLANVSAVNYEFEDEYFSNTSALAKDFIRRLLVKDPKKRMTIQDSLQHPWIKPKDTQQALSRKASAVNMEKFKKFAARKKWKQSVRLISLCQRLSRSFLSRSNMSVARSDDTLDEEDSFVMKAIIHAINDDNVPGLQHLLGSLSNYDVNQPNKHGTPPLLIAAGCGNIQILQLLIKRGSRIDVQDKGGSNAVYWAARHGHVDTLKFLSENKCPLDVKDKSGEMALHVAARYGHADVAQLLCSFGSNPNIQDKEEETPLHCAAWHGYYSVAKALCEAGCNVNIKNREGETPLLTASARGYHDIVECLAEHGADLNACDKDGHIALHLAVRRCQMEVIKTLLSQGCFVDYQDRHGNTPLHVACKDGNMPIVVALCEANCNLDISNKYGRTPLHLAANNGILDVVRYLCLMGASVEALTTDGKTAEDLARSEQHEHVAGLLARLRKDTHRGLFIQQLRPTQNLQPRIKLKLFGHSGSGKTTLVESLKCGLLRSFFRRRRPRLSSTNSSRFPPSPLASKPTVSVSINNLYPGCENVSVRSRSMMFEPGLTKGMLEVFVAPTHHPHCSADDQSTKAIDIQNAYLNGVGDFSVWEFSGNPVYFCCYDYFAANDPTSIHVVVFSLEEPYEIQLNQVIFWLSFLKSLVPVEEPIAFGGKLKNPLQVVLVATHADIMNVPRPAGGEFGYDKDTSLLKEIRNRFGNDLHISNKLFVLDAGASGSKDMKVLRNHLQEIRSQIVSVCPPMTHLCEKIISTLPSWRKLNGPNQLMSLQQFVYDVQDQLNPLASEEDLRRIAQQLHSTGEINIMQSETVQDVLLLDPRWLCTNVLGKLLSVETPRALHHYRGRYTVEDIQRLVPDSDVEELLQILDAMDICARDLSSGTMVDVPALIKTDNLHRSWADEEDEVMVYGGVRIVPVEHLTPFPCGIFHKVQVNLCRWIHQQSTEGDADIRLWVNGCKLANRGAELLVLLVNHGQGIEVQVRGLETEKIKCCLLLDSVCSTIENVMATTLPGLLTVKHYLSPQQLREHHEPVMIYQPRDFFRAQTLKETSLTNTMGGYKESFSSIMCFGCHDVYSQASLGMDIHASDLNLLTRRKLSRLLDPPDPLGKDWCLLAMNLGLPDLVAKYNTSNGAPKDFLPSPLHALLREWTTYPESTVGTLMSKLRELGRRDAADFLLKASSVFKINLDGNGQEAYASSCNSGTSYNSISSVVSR

AKT3 = AKT3 (Homo sapiens, UniProt Q9Y243)
AKT3, sequence (Q9Y243 whole entry): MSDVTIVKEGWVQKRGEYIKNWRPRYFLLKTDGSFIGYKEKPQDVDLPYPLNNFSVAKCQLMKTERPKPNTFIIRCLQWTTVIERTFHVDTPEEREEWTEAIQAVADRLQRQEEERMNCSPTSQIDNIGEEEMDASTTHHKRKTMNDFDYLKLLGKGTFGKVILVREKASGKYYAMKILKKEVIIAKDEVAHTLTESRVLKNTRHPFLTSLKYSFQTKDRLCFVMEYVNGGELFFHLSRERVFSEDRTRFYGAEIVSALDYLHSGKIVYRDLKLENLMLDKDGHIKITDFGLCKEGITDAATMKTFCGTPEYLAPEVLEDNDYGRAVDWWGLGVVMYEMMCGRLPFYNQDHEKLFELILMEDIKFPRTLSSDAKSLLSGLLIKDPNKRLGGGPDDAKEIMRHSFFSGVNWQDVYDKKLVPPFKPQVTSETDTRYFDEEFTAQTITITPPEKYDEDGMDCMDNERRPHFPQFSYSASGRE

TAF1 = TAF1 (Homo sapiens, UniProt P21675)
TAF1, sequence (P21675 whole entry): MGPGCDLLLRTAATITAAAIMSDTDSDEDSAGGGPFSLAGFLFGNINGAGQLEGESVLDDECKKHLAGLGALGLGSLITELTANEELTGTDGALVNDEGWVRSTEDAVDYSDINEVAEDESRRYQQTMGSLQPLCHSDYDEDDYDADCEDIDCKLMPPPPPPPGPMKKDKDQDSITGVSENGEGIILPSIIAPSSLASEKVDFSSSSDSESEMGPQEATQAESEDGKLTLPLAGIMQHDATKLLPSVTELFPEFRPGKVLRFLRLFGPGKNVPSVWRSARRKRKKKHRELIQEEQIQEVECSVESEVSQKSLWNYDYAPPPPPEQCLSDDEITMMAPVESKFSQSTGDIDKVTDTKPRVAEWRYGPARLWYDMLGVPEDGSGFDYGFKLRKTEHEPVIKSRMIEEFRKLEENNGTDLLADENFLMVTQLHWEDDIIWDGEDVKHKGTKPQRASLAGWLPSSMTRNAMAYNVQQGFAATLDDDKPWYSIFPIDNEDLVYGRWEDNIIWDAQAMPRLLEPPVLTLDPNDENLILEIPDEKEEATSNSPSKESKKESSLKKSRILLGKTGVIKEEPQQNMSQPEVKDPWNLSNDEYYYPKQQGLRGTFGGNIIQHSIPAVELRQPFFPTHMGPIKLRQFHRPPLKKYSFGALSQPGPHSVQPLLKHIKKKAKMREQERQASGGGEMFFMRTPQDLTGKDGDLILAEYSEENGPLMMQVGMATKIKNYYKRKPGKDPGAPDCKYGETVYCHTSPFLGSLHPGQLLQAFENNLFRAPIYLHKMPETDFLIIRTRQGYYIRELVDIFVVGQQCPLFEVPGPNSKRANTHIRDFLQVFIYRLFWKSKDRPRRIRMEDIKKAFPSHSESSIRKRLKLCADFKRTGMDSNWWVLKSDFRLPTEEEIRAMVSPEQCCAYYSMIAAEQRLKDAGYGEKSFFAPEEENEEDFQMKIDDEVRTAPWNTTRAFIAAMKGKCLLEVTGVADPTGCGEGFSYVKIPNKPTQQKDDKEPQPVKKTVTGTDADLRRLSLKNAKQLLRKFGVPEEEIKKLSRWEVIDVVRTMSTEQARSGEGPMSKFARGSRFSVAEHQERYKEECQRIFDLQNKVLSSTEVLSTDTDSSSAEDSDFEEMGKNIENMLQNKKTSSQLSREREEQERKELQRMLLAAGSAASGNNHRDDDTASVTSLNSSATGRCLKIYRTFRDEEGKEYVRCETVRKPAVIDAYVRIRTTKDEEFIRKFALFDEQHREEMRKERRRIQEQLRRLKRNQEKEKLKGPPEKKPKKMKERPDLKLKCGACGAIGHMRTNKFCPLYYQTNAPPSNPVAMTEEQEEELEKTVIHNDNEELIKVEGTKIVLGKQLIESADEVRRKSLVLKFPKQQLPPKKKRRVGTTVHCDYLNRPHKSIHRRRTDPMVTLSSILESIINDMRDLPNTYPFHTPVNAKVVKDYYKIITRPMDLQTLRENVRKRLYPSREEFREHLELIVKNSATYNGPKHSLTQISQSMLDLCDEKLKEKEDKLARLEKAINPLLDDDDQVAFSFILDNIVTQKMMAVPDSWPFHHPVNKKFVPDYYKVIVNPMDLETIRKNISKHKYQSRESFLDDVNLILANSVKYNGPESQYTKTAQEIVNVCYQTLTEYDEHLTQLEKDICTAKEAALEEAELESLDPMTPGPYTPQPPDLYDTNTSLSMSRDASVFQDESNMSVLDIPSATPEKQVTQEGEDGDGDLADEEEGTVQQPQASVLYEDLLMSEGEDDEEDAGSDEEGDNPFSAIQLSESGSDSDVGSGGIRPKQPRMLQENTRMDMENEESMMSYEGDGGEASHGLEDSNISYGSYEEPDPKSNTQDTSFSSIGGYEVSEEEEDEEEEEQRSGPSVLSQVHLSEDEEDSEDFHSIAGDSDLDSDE

DAPK3 = DAPK3 (Homo sapiens, UniProt O43293)
DAPK3, sequence (O43293 whole entry): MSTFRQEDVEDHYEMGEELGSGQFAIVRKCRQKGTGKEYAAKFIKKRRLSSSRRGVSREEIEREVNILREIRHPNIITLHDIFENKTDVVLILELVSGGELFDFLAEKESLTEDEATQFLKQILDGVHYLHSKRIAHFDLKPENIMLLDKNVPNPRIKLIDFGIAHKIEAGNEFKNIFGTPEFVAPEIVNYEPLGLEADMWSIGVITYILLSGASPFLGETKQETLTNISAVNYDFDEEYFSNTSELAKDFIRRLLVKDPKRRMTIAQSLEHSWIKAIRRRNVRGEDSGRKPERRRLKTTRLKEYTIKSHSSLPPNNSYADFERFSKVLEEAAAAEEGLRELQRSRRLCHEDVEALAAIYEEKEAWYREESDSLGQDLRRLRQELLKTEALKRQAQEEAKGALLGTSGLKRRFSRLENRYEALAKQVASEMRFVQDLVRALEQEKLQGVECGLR

EphA2 = EphA2 (Homo sapiens, UniProt P29317)
NQO2A = biological target: T4, NQO2A (Homo sapiens, UniProt P16083)
T4 sequence (P16083 1-231): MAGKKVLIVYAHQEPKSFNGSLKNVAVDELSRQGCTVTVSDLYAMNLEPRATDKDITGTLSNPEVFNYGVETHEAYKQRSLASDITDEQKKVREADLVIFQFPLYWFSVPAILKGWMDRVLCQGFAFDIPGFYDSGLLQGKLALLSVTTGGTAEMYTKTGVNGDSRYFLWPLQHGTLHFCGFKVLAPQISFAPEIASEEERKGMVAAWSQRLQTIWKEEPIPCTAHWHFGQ

- dTm 33 (MAP2K4): 10.0 °C
- dTm 33 (EphB1): 6.5 °C
- dTm 33 (NEK2): 10.6 °C
- dTm 33 (DAPK1): -1.1 °C
- dTm 33 (AKT3): 4.6 °C
- dTm 33 (TAF1): -0.2 °C
- dTm 33 (DAPK3): 1.9 °C
- dTm 33 (EphA2): 8.3 °C
- dTm 33 (NQO2A): 0.9 °C
Compound: Cc1cccc(-c2ccc(-c3cc4cnc(Nc5ccc(F)c(CO)c5)nc4n(CCCCN)c3=O)c(Cl)c2)n1 [compound 33, 8-(4-Aminobutyl)-6-(2-chloro-4-(6-methylpyridin-2-yl)phenyl)-2-((4-fluoro-3-(hydroxymethyl)phenyl)amino)pyrido[2,3-d]pyrimidin-7(8H)-one]

- dTm 34 (MAP2K4): 8.0 °C
- dTm 34 (EphB1): 5.2 °C
- dTm 34 (NEK2): 8.4 °C
- dTm 34 (DAPK1): -0.8 °C
- dTm 34 (AKT3): 1.3 °C
- dTm 34 (TAF1): 0.1 °C
- dTm 34 (DAPK3): 1.5 °C
- dTm 34 (EphA2): 3.9 °C
- dTm 34 (NQO2A): -1.3 °C
Compound: COc1ccc(O)c(Nc2ncc3cc(-c4ccc(-c5cccc(C)n5)cc4Cl)c(=O)n(CCCCN)c3n2)c1 [compound 34, 8-(4-Aminobutyl)-6-(2-chloro-4-(6-methylpyridin-2-yl)phenyl)-2-((2-hydroxy-5-methoxy-phenyl)amino)pyrido[2,3-d]pyrimidin-7(8H)-one]

- dTm 35 (MAP2K4): 7.6 °C
- dTm 35 (EphB1): 6.0 °C
- dTm 35 (NEK2): 10.6 °C
- dTm 35 (DAPK1): -2.1 °C
- dTm 35 (AKT3): 1.0 °C
- dTm 35 (TAF1): -0.7 °C
- dTm 35 (DAPK3): 3.2 °C
- dTm 35 (EphA2): 4.6 °C
- dTm 35 (NQO2A): -2.4 °C
Compound: COc1cc(N2CCOCC2)ccc1Nc1ncc2cc(-c3ccc(-c4cccc(C)n4)cc3Cl)c(=O)n(CCCCN)c2n1 [compound 35, 8-(4-Aminobutyl)-6-(2-chloro-4-(6-methylpyridin-2-yl)phenyl)-2-((2-methoxy-4-morpholino-phenyl)amino)pyrido[2,3-d]pyrimidin-7(8H)-one]

- dTm 36 (MAP2K4): 6.9 °C
- dTm 36 (EphB1): 5.5 °C
- dTm 36 (NEK2): 9.2 °C
- dTm 36 (DAPK1): -1.2 °C
- dTm 36 (AKT3): 1.0 °C
- dTm 36 (TAF1): -0.4 °C
- dTm 36 (DAPK3): 1.6 °C
- dTm 36 (EphA2): 2.4 °C
- dTm 36 (NQO2A): -1.0 °C
Compound: COc1cc(N2CCN(C)CC2)ccc1Nc1ncc2cc(-c3ccc(-c4cccc(C)n4)cc3Cl)c(=O)n(CCCCN)c2n1 [compound 36, 8-(4-Aminobutyl)-6-(2-chloro-4-(6-methylpyridin-2-yl)phenyl)-2-((2-methoxy-4-(4-methylpiperazin-1-yl)phenyl)amino)pyrido[2,3-d]pyrimidin-7(8H)-one]

From article doi:10.1101/2023.11.24.568596v1 (biorxiv, 2023)
